Results: BigSolDB 2.1

c1ccc2c(c1)sc1ccccc12
Details	solubility (mole fraction)
in 2-(2-butoxyethoxy)ethanol, 282.75 K	0.063
in 2-(2-butoxyethoxy)ethanol, 285.85 K	0.0695
in 2-(2-butoxyethoxy)ethanol, 291.65 K	0.0873
in 2-(2-butoxyethoxy)ethanol, 298.95 K	0.105
in 2-(2-butoxyethoxy)ethanol, 304.35 K	0.123
in 2-(2-butoxyethoxy)ethanol, 309.85 K	0.144
in 2-(2-butoxyethoxy)ethanol, 316.05 K	0.167
in 2-(2-butoxyethoxy)ethanol, 320.95 K	0.192
in 2-(2-butoxyethoxy)ethanol, 324.35 K	0.217
in 2-(2-butoxyethoxy)ethanol, 328.95 K	0.245
in 2-(2-butoxyethoxy)ethanol, 333.15 K	0.28
in DMF, 289.45 K	0.113
in DMF, 294.25 K	0.131
in DMF, 298.65 K	0.147
in DMF, 302.65 K	0.165
in DMF, 306.55 K	0.184
in DMF, 310.15 K	0.206
in DMF, 314.35 K	0.231
in DMF, 318.35 K	0.257
in DMF, 322.35 K	0.285
in DMF, 325.55 K	0.313
in DMF, 329.25 K	0.344
in DMSO, 292.95 K	0.0567
in DMSO, 296.45 K	0.0668
in DMSO, 301.25 K	0.0791
in DMSO, 306.15 K	0.0925
in DMSO, 310.15 K	0.108
in DMSO, 314.85 K	0.127
in DMSO, 318.05 K	0.15
in DMSO, 322.95 K	0.177
in DMSO, 325.45 K	0.201
in DMSO, 330.15 K	0.234
in DMSO, 333.25 K	0.264
in acetone, 300.15 K	0.0769
in acetone, 301.15 K	0.0792
in acetone, 303.15 K	0.0884
in acetone, 308.15 K	0.107
in acetone, 311.25 K	0.12
in acetone, 314.65 K	0.136
in acetone, 317.95 K	0.156
in acetone, 321.65 K	0.179
in acetone, 326.25 K	0.217
in acetone, 330.95 K	0.261
in acetone, 336.25 K	0.319
in acetone, 341.15 K	0.372
in acetonitrile, 289.35 K	0.0103
in acetonitrile, 290.45 K	0.0107
in acetonitrile, 293.25 K	0.0121
in acetonitrile, 297.35 K	0.0143
in acetonitrile, 302.15 K	0.0175
in acetonitrile, 304.55 K	0.0199
in acetonitrile, 309.25 K	0.0244
in decalin, 294.15 K	0.0408
in decalin, 296.15 K	0.042
in decalin, 298.15 K	0.0445
in decalin, 302.15 K	0.049
in decalin, 304.15 K	0.0516
in decalin, 308.15 K	0.0571
in decalin, 317.15 K	0.0706
in decalin, 325.15 K	0.0891
in decalin, 331.15 K	0.101
in decalin, 337.15 K	0.107
in diethylene glycol, 287.85 K	0.00027
in diethylene glycol, 299.95 K	0.00062
in diethylene glycol, 309.95 K	0.00093
in diethylene glycol, 314.15 K	0.00119
in diethylene glycol, 317.65 K	0.00163
in diethylene glycol, 320.95 K	0.0023
in diethylene glycol, 324.95 K	0.00328
in diethylene glycol, 326.85 K	0.00443
in diethylene glycol, 328.15 K	0.00619
in diethylene glycol, 330.15 K	0.00951
in diethylene glycol, 332.35 K	0.0143
in diethylene glycol, 334.15 K	0.0203
in ethanol, 294.55 K	0.0062
in ethanol, 300.25 K	0.0074
in ethanol, 303.85 K	0.0082
in ethanol, 306.45 K	0.0092
in ethanol, 310.25 K	0.0106
in ethanol, 313.95 K	0.0121
in ethanol, 318.95 K	0.0141
in ethanol, 322.55 K	0.0164
in ethanol, 327.35 K	0.0197
in ethanol, 331.15 K	0.0239
in n-octane, 292.05 K	0.0232
in n-octane, 294.15 K	0.0244
in n-octane, 297.15 K	0.0277
in n-octane, 300.05 K	0.0317
in n-octane, 304.15 K	0.0373
in n-octane, 308.25 K	0.0438
in n-octane, 314.15 K	0.0521
in n-octane, 318.15 K	0.062
in n-octane, 325.15 K	0.0767
in n-octane, 337.15 K	0.0995
in n-propanol, 288.05 K	0.0065
in n-propanol, 295.95 K	0.0083
in n-propanol, 300.15 K	0.0099
in n-propanol, 303.85 K	0.0118
in n-propanol, 307.85 K	0.0143
in n-propanol, 314.65 K	0.0183
in n-propanol, 320.65 K	0.0232
in n-propanol, 324.05 K	0.0292
in n-propanol, 328.95 K	0.0363
in n-propanol, 332.25 K	0.043
in n-propanol, 336.05 K	0.0486
in sulfolane, 297.65 K	0.0541
in sulfolane, 299.45 K	0.0563
in sulfolane, 301.75 K	0.0609
in sulfolane, 303.45 K	0.0712
in sulfolane, 309.15 K	0.0923
in sulfolane, 313.35 K	0.109
in sulfolane, 317.05 K	0.125
in sulfolane, 321.05 K	0.144
in sulfolane, 324.85 K	0.163
in sulfolane, 327.75 K	0.185
in sulfolane, 331.75 K	0.214
in sulfolane, 334.75 K	0.242
in sulfolane, 338.25 K	0.271
in sulfolane, 340.45 K	0.294
